The species named for assay [1] is Homo sapiens. The assay can be described thus: Binding affinity to SGLT1 D621W mutant (unknown origin) by tryptophan fluorescence quenching method.
Assay [2] is filed under the species Homo sapiens. Kind of assay: Binding affinity to SGLT1 R601W mutant (unknown origin) by tryptophan fluorescence quenching method.
Assay [3] addresses T1, Sodium/glucose cotransporter 2 (Rattus norvegicus, UniProt P53792).
T1 sequence (P53792 whole entry): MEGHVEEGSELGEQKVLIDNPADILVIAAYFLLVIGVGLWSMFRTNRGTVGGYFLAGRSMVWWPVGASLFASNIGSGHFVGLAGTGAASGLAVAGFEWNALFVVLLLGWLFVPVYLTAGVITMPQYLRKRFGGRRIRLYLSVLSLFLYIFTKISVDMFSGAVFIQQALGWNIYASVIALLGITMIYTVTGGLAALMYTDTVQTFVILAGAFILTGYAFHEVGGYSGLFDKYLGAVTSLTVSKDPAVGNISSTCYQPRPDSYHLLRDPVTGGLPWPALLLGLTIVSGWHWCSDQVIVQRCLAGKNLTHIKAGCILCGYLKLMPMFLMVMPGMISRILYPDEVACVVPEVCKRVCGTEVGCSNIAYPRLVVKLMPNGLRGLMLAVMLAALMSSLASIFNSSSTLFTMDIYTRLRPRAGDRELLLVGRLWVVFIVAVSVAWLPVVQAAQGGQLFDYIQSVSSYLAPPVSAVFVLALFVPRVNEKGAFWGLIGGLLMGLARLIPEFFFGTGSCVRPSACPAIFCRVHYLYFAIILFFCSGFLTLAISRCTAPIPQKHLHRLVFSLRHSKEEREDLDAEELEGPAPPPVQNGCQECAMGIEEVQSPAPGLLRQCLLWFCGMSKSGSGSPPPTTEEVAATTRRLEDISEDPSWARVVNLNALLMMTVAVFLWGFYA
Kind of assay: Binding affinity to SGLT2 in isolated rat renal cortex brush border membranes using maleimide-PEG800-NHS to couple compound to AFM cantilever tip.

As usually defined, the Kd is a measure of binding affinity in units of concentration. Read a high Kd as weaker binding.

For the compound `O=C(CCc1ccc(O)cc1)c1c(O)cc(O)cc1O[C@@H]1O[C@H](CO)[C@@H](O)[C@H](O)[C@H]1O`, the values for the Qmax in assay [1] and in assay [2] were 80% and 67%, respectively.

Take `O=C(CCCCCS)Nc1cc(CCC(=O)c2c(O)cc(O)cc2O[C@@H]2O[C@H](CO)[C@@H](O)[C@H](O)[C@H]2O)ccc1O`: binding in assay [3] was put at a Kd of 200 nM.

Values taken from ChEMBL document CHEMBL3817784, “The role of transporter ectodomains in drug recognition and binding: phlorizin and the sodiumglucose cotransporter” (Medchemcomm, 2016).
